Reference: US20210330611A1, “THERAPY FOR NEUROLOGICAL DISEASES/DISORDERS” (priority 2020, published 2021)
Where a name gives a salt, the structure may show the parent alone. Read-outs that look alike come from different tables or passages of the source.

Key:
primary rat microglia [1] = tested on: primary rat microglia
[2] = tested on: fibrin- and LPS-induced microglia activation; test: cells; type: cell-based, rat
[3] = tested on: fibrin-induced microglia activation; test: Image-based assay of fibrin-induced microglia activation (HTS and dose response); type: cell-based, rat; details: primary microglia HTS, fibrin stimulation; for inhibition at 10 µM: Rattus norvegicus, Microglia, read-out: Fibrin % inhibition
primary rat microglia [4] = test: Cell toxicity (dead cells, size <150 μm2) in coated fibrin (cFib) assay; details: primary microglia HTS;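 note: share of dead cells sized under 150 µm2 at 10 µM in fibrin-stimulated microglia HTS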
[5] = tested on: LPS-induced microglia activation; test: Image-based assay of LPS-induced microglia activation (HTS and dose response); type: cell-based, rat; details: for inhibition at 10 µM: Rattus norvegicus, Microglia, read-out: LPS % inhibition
[6] = quadrant by fibrin and LPS inhibition, HTS at 10 μM
[7] = fibrin assay, dead cells (size <150 μm2)
[8] = primary microglia HTS, LPS stimulation, compounds at 10 μM
[9] = classification by fibrin and LPS inhibition, HTS at 10 μM
[10] = fibrin assay, dead cells (size <150 μm2), compounds at 10 μM
[11] = classification by fibrin and LPS inhibition in HTS
[12] = cell size >800 μm2 as marker of activation
[13] = fibrin stimulation, cell size <150 μm2 as marker of toxicity

O=C(Oc1cccc2cccnc12)c1ccccc1 [Benzoxiquine]
LPS % cell toxicity (primary rat microglia [1]; rat): 0% | Quadrant (FIG. 5b) [2, 6]: Q4 | inhibition at 10 µM ([3]; compounds at 10 μM): -2% | Fibrin % cell toxicity (primary rat microglia [4]; [7]): 1% | inhibition at 10 µM [5, 8]: 14%

Cc1cc(N)c2ccccc2[n+]1CCCCCCCCCC[n+]1c(C)cc(N)c2ccccc21 [Dequadin]
LPS % cell toxicity (primary rat microglia [1]; rat): 0% | Quadrant (FIG. 5b) [2, 9]: Q4 | inhibition at 10 µM ([3]; compounds at 10 μM): -32% | Fibrin % cell toxicity (primary rat microglia [4]; [10]): 0% | inhibition at 10 µM [5, 8]: 2%

CCC1(C2=NCCN2)Cc2ccccc2O1 (stereo not shown) [Efaroxan, Efaroxan Hydrochloride]
LPS % cell toxicity (primary rat microglia [1]): 0% | Quadrant (FIG. 5b) [2, 9]: Q4 | Fibrin % inhibition ([3]; compounds at 10 μM): 1% | Fibrin % cell toxicity (primary rat microglia [4]; [10]): 1% | LPS % inhibition [5, 8]: 5%

OC(CCN1CCCCC1)(c1ccccc1)c1ccccc1 [Pridinol]
LPS % cell toxicity (primary rat microglia [1]; rat): 0% | Quadrant (FIG. 5b) [2, 11]: Q4 | inhibition at 10 µM [3, 12]: -18% | Fibrin % cell toxicity (primary rat microglia [4]; [13]): 1% | inhibition at 10 µM ([5]; 48 h): 4%

Nc1nc(N)nc(NC2CC2)n1 [Cyromazine]
LPS % cell toxicity (primary rat microglia [1]; rat): 0% | Quadrant (FIG. 5b) [2, 9]: Q4 | inhibition at 10 µM ([3]; compounds at 10 μM): -9% | Fibrin % cell toxicity (primary rat microglia [4]; [10]): 1% | inhibition at 10 µM [5, 8]: 9%

CC(=O)Oc1ccccc1C(=O)O [Acetylsalicylic acid]
LPS % cell toxicity (primary rat microglia [1]; rat): 0% | Quadrant (FIG. 5b) [2, 6]: Q4 | inhibition at 10 µM ([3]; compounds at 10 μM): -21% | Fibrin % cell toxicity (primary rat microglia [4]; [7]): 1% | inhibition at 10 µM [5, 8]: 17%

O=C1c2c(O)cccc2Cc2cccc(O)c21 [Anthralin]
LPS % cell toxicity (primary rat microglia [1]; rat): 1% | Quadrant (FIG. 5b) [2, 6]: Q4 | inhibition at 10 µM ([3]; compounds at 10 μM): -10% | Fibrin % cell toxicity (primary rat microglia [4]; [7]): 1% | inhibition at 10 µM [5, 8]: 13%

COC(=O)/C=C/C(=O)OC [Dimethyl Fumarate]
LPS % cell toxicity (primary rat microglia [1]; rat): 0% | Quadrant (FIG. 5b) [2, 9]: Q4 | inhibition at 10 µM ([3]; compounds at 10 μM): 4% | Fibrin % cell toxicity (primary rat microglia [4]; [10]): 0% | inhibition at 10 µM [5, 8]: 16%

CC1(C)C(C=C(Cl)Cl)C1C(=O)OCc1cccc(Oc2ccccc2)c1 (stereo not shown) [Permethrin]
LPS % cell toxicity (primary rat microglia [1]; rat): 0% | Quadrant (FIG. 5b) [2, 11]: Q4 | inhibition at 10 µM [3, 12]: -21% | Fibrin % cell toxicity (primary rat microglia [4]; [13]): 0% | inhibition at 10 µM ([5]; 48 h): 11%

CN(C(=O)C(Cl)Cl)c1ccc(OC(=O)c2ccco2)cc1 [Diloxanide Furoate]
LPS % cell toxicity (primary rat microglia [1]; rat): 0% | Quadrant (FIG. 5b) [2, 9]: Q4 | inhibition at 10 µM ([3]; compounds at 10 μM): -3% | Fibrin % cell toxicity (primary rat microglia [4]; [10]): 1% | inhibition at 10 µM [5, 8]: 17%

C[C@@H](O[C@H]1OCCN(Cc2n[nH]c(=O)[nH]2)[C@H]1c1ccc(F)cc1)c1cc(C(F)(F)F)cc(C(F)(F)F)c1 [Aprepitant]
LPS % cell toxicity (primary rat microglia [1]; rat): 0% | Quadrant (FIG. 5b) [2, 6]: Q4 | inhibition at 10 µM ([3]; compounds at 10 μM): 20% | Fibrin % cell toxicity (primary rat microglia [4]; [7]): 1% | inhibition at 10 µM [5, 8]: 1%

CC[C@H]1OC(=O)[C@H](C)[C@@H](O[C@H]2C[C@@](C)(OC)[C@@H](O)[C@H](C)O2)[C@H](C)[C@@H](O[C@@H]2O[C@H](C)C[C@H](N(C)C)[C@H]2O)[C@](C)(O)C[C@@H](C)/C(=N\OCOCCOC)[C@H](C)[C@@H](O)[C@]1(C)O [Roxithromycin]
LPS % cell toxicity (primary rat microglia [1]; rat): 1% | Quadrant (FIG. 5b) [2, 11]: Q4 | inhibition at 10 µM [3, 12]: -4% | Fibrin % cell toxicity (primary rat microglia [4]; [13]): 0% | inhibition at 10 µM ([5]; 48 h): 17%

CN1CCC(=C2c3ccccc3CCc3cccnc32)CC1 [Azatadine]
LPS % cell toxicity (primary rat microglia [1]; rat): 0% | Quadrant (FIG. 5b) [2, 6]: Q4 | inhibition at 10 µM ([3]; compounds at 10 μM): -9% | Fibrin % cell toxicity (primary rat microglia [4]; [7]): 1% | inhibition at 10 µM [5, 8]: 7%

CCCCCCOc1ccccc1C(N)=O [Exalamide]
LPS % cell toxicity (primary rat microglia [1]; rat): 0% | Quadrant (FIG. 5b) [2, 9]: Q4 | inhibition at 10 µM ([3]; compounds at 10 μM): -15% | Fibrin % cell toxicity (primary rat microglia [4]; [10]): 1% | inhibition at 10 µM [5, 8]: 18%

[N-]=[N+]=CC(=O)OC[C@H](N)C(=O)O [Azaserine]
LPS % cell toxicity (primary rat microglia [1]; rat): 0% | Quadrant (FIG. 5b) [2, 6]: Q4 | inhibition at 10 µM ([3]; compounds at 10 μM): 8% | Fibrin % cell toxicity (primary rat microglia [4]; [7]): 1% | inhibition at 10 µM [5, 8]: 2%

FC(F)(Cl)C(F)(F)Cl [Cryoflurane]
LPS % cell toxicity (primary rat microglia [1]): 0% | Quadrant (FIG. 5b) [2, 9]: Q4 | Fibrin % inhibition ([3]; compounds at 10 μM): −4% | Fibrin % cell toxicity (primary rat microglia [4]; [10]): 1% | LPS % inhibition [5, 8]: 12%

C[C@@H](O)CN(CCN(C[C@@H](C)O)C[C@@H](C)O)C[C@@H](C)O [Editol]
LPS % cell toxicity (primary rat microglia [1]): 0% | Quadrant (FIG. 5b) [2, 9]: Q4 | Fibrin % inhibition ([3]; compounds at 10 μM): 24% | Fibrin % cell toxicity (primary rat microglia [4]; [10]): 1% | LPS % inhibition [5, 8]: 3%
